These results are taken from patent US20110046131A1, “PURINES AS PKC-THETA INHIBITORS” (N.V. Organon and Pharmacopeia, LLC, priority 2006, published 2011).

Common to all, as to assay type: biochemical
For one test, the target named is T1, PKCθ (Homo sapiens, UniProt Q04759).
T1 construct: purchased Pan Vera
Briefly: Ki Pan Vera (PV) potency for PKCθ. To be noted: Ki Pan Vera (PV) of PKCθ. How it is done: (§1) For Ki Pan Vera (PV) of PKCθ, entries identified with “A” had values below 100 nM; entries identified with “B” had values below 1 μM; and entries identified with “C” had values below 10 μM.

Another test concerns the target T2, PKC delta (Homo sapiens, UniProt Q05655).
T2 construct: purchased Pan Vera
Kind of test: Ki Pan Vera (PV) potency for PKC delta. To be noted: Ki Pan Vera (PV) of PKC delta. How it is done:
[The source words this procedure for another target and reports this target under the same test.] as §1

In the next test the target is T3, PKC alpha (Homo sapiens, UniProt P17252).
T3 construct: purchased Pan Vera
Briefly: Ki Pan Vera (PV) potency for PKC alpha. The following applies: Ki Pan Vera (PV) of PKC alpha. On the procedure: [The source words this procedure for another target and reports this target under the same test.] as §1

The next test addresses T4, SGK kinase (Homo sapiens, UniProt O00141).
T4 sequence (O00141 1-431): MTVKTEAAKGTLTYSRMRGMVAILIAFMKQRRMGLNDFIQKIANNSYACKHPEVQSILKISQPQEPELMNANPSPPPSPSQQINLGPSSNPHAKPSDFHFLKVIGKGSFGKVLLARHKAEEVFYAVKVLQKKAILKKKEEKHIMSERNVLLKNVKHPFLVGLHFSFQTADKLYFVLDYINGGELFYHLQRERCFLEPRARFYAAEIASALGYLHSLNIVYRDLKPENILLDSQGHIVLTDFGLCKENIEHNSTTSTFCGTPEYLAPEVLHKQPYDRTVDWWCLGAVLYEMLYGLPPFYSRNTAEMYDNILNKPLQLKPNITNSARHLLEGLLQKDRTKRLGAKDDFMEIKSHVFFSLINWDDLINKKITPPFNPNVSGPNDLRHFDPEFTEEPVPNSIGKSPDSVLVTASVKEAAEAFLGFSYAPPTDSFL
Briefly: IC50 for SGK kinase (selectivity). To be noted: for pIC50: read-out: IC50-SGK1. How it is done:
Entries identified with “1” had values above 250 nM; entries identified with “2” had values above 1 μM; entries identified with “3” had values above 10 μM.

pIC50, pKi: −log10 of the molar value.

As a reminder, the pKi is the negative decadic logarithm of the Ki, by convention in mol/L. As a reminder, the pIC50 is the IC50 on a negative log10 scale, so that one unit is a factor of ten.

T1 sequence (Q04759 whole entry): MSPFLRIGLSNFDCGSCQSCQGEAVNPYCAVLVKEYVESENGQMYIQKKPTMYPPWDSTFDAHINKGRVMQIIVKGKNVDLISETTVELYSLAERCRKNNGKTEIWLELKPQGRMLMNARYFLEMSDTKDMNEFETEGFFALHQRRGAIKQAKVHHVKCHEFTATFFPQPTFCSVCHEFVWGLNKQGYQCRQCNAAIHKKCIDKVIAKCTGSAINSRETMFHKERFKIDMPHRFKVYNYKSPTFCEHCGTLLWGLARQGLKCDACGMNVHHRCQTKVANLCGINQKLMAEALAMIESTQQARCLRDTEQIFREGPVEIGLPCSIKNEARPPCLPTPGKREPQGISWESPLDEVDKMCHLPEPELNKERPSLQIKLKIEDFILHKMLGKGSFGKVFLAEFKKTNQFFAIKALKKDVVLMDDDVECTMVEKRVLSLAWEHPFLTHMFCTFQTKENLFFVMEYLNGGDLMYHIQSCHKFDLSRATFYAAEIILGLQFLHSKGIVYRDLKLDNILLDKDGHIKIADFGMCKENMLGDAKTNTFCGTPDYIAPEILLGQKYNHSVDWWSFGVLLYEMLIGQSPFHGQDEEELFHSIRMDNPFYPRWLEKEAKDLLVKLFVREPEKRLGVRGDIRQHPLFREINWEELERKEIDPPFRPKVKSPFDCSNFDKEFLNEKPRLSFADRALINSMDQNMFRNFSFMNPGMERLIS
T2 sequence (Q05655 whole entry): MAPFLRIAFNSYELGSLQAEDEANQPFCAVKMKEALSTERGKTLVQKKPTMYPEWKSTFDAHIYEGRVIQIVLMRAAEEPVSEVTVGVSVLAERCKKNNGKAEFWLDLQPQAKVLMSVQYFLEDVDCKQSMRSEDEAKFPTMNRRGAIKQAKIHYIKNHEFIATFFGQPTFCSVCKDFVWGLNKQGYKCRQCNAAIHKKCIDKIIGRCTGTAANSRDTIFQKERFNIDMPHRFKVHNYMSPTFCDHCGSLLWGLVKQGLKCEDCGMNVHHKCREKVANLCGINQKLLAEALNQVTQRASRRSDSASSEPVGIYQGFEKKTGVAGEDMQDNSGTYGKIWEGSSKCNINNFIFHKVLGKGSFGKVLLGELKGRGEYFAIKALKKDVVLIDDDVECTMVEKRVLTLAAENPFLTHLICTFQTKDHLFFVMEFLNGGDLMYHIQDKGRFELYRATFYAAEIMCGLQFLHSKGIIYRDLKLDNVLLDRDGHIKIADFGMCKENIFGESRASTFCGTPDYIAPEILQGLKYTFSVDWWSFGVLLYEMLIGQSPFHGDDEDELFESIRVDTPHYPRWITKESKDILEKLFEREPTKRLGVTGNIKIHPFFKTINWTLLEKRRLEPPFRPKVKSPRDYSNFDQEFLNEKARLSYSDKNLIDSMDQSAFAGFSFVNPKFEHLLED

As to `Fc1ccc(Cl)cc1CNc1ncc2nc(-c3c(Cl)cccc3Cl)n(C[C@@H]3CCCNC3)c2n1` [Compound 102], the pKi was greater than 7.00 on PKCθ, less than 6.00 on PKC delta and less than 6.00 on PKC alpha. On SGK kinase, the pIC50 was less than 5.00.
Turning to `Fc1cccc(CNc2ncc3nc(-c4c(Cl)cccc4Cl)n(C[C@@H]4CCCNC4)c3n2)c1` [Compound 103], the pKi at PKCθ was greater than 7.00; on PKC delta, less than 6.60; on PKC alpha, less than 6.00.
As for `Fc1ccc(F)c(CNc2ncc3nc(-c4c(Cl)cccc4Cl)n(C[C@@H]4CCCNC4)c3n2)c1` [Compound 104], the pKi is greater than 7.00 on PKCθ, less than 6.60 at PKC delta and less than 6.00 at PKC alpha. Moreover, the pIC50 on SGK kinase is less than 5.00.
Regarding `Fc1ccc(CNc2ncc3nc(-c4c(Cl)cccc4Cl)n(C[C@@H]4CCCNC4)c3n2)cc1` [Compound 105], the pKi on PKCθ was greater than 7.00; at PKC delta it was less than 6.60; on PKC alpha, less than 6.00. Moreover, the IC50-SGK1 entry on SGK kinase is listed as “Inactive”.
Take `Fc1ccc(Cl)cc1CNc1ncc2nc(-c3c(Cl)cccc3Cl)n(C[C@@H]3CCCNC3)c2n1` [Compound 106]: the pKi is greater than 6.00 at PKCθ, less than 6.00 at PKC delta and less than 5.00 at PKC alpha. The IC50-SGK1 entry against SGK kinase is on record as “Inactive”.
As to `Clc1ccc(CNc2ncc3nc(-c4c(Cl)cccc4Cl)n(C[C@@H]4CCCNC4)c3n2)cc1Cl` [Compound 107], the values for the pKi on PKCθ, at PKC delta and at PKC alpha were greater than 6.00, less than 6.00 and less than 5.00, respectively.
For the compound `Fc1ccc(CNc2ncc3nc(-c4c(F)cccc4Cl)n(C[C@@H]4CCCNC4)c3n2)cc1Cl` [Compound 108], the figures for the pKi at PKCθ, at PKC delta and at PKC alpha were greater than 6.00, less than 6.00 and less than 6.00, respectively. Besides, on SGK kinase, the IC50-SGK1 result is “Inactive”.
At PKC alpha, `Fc1ccccc1CNc1ncc2nc(-c3c(Cl)cccc3Cl)n(C[C@@H]3CCCNC3)c2n1` [Compound 111] had a pKi of less than 6.00. For the same compound, the IC50-SGK1 result against SGK kinase is given as “Inactive”.
`Clc1cccc(Cl)c1C1=Nc2cnc(NCc3ccsc3)nc2C1C[C@@H]1CCCNC1` (stereo partly shown) [Compound 114]: the IC50-SGK1 result against SGK kinase is on record as “Inactive”.
Turning to `Clc1cccc(Cl)c1-c1nc2cnc(NCc3cccs3)nc2n1C[C@@H]1CCCNC1` [Compound 119, (R)-8-(2,6-dichlorophenyl)-9-(piperidin-3-ylmethyl)-N-(thiophen-2-ylmethyl)-9H-purin-2-amine], the figures for the negative-log Ki (pKi) at PKCθ, on PKC delta and at PKC alpha were greater than 7.00, less than 6.00 and less than 6.00, respectively.
Take `Fc1cccc(CNc2ncc3nc(-c4c(F)cccc4Cl)n(C[C@@H]4CCCNC4)c3n2)c1` [Compound 123]: the values for the pKi at PKCθ, at PKC delta and at PKC alpha were greater than 6.00, less than 6.00 and less than 6.00, respectively.
In the case of `Fc1cccc(Cl)c1-c1nc2cnc(NCc3ccc(Cl)c(Cl)c3)nc2n1C[C@@H]1CCCNC1` [Compound 132], the results for the pKi at PKCθ, on PKC delta and at PKC alpha were greater than 5.00, less than 6.00 and less than 5.00, respectively.
Turning to `Clc1cccc(Cl)c1C1=Nc2cnc(NCc3nccs3)nc2C1C[C@@H]1CCCNC1` (stereo partly shown) [Compound 137], at SGK kinase, the IC50-SGK1 result is listed as “Inactive”.
As for `Fc1ccc(CNc2ncc3nc(-c4c(Cl)cccc4Cl)n(CC4CCNC4)c3n2)cc1Cl` (stereo not shown) [Compound 139], the results for the pKi at PKCθ, on PKC delta and at PKC alpha were greater than 6.00, less than 6.00 and less than 6.00, respectively.
For the compound `Fc1ccc(CNc2ncc3nc(-c4c(Cl)cccc4Cl)n(C[C@H]4CCNC4)c3n2)c(F)c1` [Compound 140], the figures for the negative-log Ki (pKi) on PKCθ, at PKC delta and at PKC alpha were greater than 6.00, less than 6.00 and less than 6.00, respectively.
Take `Fc1cccc(Cl)c1-c1nc2cnc(NCc3ccccc3)nc2n1C[C@@H]1CCCNC1` [Compound 145]: the pKi is greater than 6.00 on PKCθ, less than 6.00 at PKC delta and less than 6.00 at PKC alpha.
For `NC[C@H]1CC[C@H](n2c(-c3c(Cl)cccc3Cl)nc3cnc(NCc4ccccc4F)nc32)CC1` [Compound 149], the pKi is greater than 6.00 at PKCθ and less than 6.00 at PKC delta. Besides, the pIC50 on SGK kinase was less than 5.00.
`Fc1cccc(CNc2ncc3nc(-c4ccccc4Cl)n(C[C@@H]4CCCNC4)c3n2)c1` [Compound 152]: the pKi is greater than 6.00 at PKCθ, less than 6.00 at PKC delta and less than 6.00 on PKC alpha.
For the compound `Clc1cccc(CNc2ncc3nc(-c4c(Cl)cccc4Cl)n(CC4CCNC4)c3n2)c1` (stereo not shown) [Compound 157], the pKi on PKCθ is greater than 6.00; at PKC delta, less than 6.00; at PKC alpha it was less than 6.00.
Regarding `Fc1ccc(Cl)cc1CNc1ncc2nc(-c3c(Cl)cccc3Cl)n(CC3CCNC3)c2n1` (stereo not shown) [Compound 159], the pKi is greater than 6.00 on PKCθ, less than 6.00 on PKC delta and less than 6.00 on PKC alpha.
As for `Clc1ccc(CNc2ncc3nc(-c4ccccc4Cl)n(C[C@@H]4CCCNC4)c3n2)cc1Cl` [Compound 165], the pKi was greater than 5.00 on PKCθ, less than 6.00 at PKC delta and less than 5.00 at PKC alpha.
Turning to `Fc1cccc(Cl)c1-c1nc2cnc(NCc3cccs3)nc2n1C[C@@H]1CCCNC1` [Compound 169], the figures for the pKi at PKCθ, on PKC delta and at PKC alpha were greater than 6.00, less than 6.00 and less than 5.00, respectively.
As for `NC[C@H]1CC[C@H](n2c(-c3ccccc3Cl)nc3cnc(NCc4ccccc4F)nc32)CC1` [Compound 175], the pKi on PKCθ was greater than 6.00; on PKC delta, less than 6.00. On SGK kinase, the IC50-SGK1 result is reported as “Inactive”.
For `Cc1ccsc1CNc1ncc2nc(-c3c(Cl)cccc3Cl)n(C[C@@H]3CCCNC3)c2n1` [Compound 201], the IC50-SGK1 result on SGK kinase is recorded as “Inactive”.
For `Clc1cccc(Cl)c1-c1nc2cnc(NCc3cccs3)nc2n1CCC1CCNCC1` [Compound 203], the values for the pKi on PKCθ, on PKC delta and at PKC alpha were greater than 6.00, less than 6.00 and less than 5.00, respectively.
On the same counts, the results for `Fc1ccc(CNc2ncc3nc(-c4c(F)cccc4Cl)n(CC4CCNC4)c3n2)cc1Cl` (stereo not shown) [Compound 204] are greater than 6.00, less than 6.00 and less than 5.00.
Regarding `Fc1ccc(CNc2ncc3c(n2)C(CC2CNCCO2)C(c2c(F)cccc2Cl)=N3)cc1F` (stereo not shown) [Compound 215], the IC50-SGK1 result against SGK kinase is “Inactive”.
Consider `Fc1ccccc1CNc1ncc2nc(-c3c(Cl)cccc3Cl)n(C[C@@H]3CCNC3)c2n1` [Compound 220], for which the results for the pKi at PKCθ, at PKC delta and on PKC alpha were greater than 6.00, less than 6.00 and less than 6.00, respectively.
For the compound `Fc1ccccc1CNc1ncc2nc(-c3c(Cl)cccc3Cl)n(C3CCNCC3)c2n1` [Compound 221], the IC50-SGK1 result against SGK kinase is “Inactive”.
Same read-out and setting: under `NCC1CCC(n2c(-c3cccc(F)c3F)nc3cnc(NCc4ccccc4F)nc32)CC1` (stereo not shown) [Compound 222] stands “Inactive”.
On to `C[C@H](Nc1ncc2nc(-c3c(F)cccc3Cl)n(C[C@H]3CCNC3)c2n1)c1ccccc1F` [Compound 226], for which the pKi on PKCθ is greater than 6.00; on PKC delta, less than 6.00; at PKC alpha it was less than 6.00.
In the case of `Fc1ccccc1CNc1ncc2nc(-c3cccc(F)c3F)n(CCC3CCNCC3)c2n1` [Compound 238], the pKi was greater than 6.00 on PKCθ, less than 6.00 on PKC delta and less than 6.00 at PKC alpha.
Consider `Clc1cccc(Cl)c1-c1nc2cnc(NCc3ccccn3)nc2n1CC1CCNC1` (stereo not shown) [Compound 262], for which the figures for the negative logarithm of the Ki (pKi) on PKCθ, at PKC delta and on PKC alpha were greater than 6.00, less than 6.00 and less than 6.00, respectively.
